According to patent US20110052720A1 (priority 2007, published 2011):

Assay: Reversal of a formed copper phosphite precipitate by an added agent (Example 1)
Format: physicochemical
Settings: precipitate from 0.6 g/l Cu(OH)2, 14.4 g/l KH2PO3, 1 g/l K2CO3, pH 5.5; chelators 10 mM, sodium lignosulfonate 6 g/l (48 hours of stirring)
Source text: Copper phosphite precipitate was formed by combining 0.6 g/l of Cu(OH)2 and 14.4 g/l of KH2PO3 in the presence of 1 g/l of K2CO3 to ensure pH 5.5 in demineralised water.

For O=C([O-])CN(CCN(CC(=O)[O-])CC(=O)O)CC(=O)O.[Na+].[Na+] [disodium EDTA], the “Effect of afterwards addition on copper phosphite precipitate” value was “immediately disappeared”.
